Experimental data published in patent US4912133A, “BU-3862T antitumor antibiotic” (priority 1988, dated 1990).
Values after ≈ are worked out from the molar mass of the structure shown. Where two headings read alike, the source gives them in different places.

Key:
B16 melanoma = conditions: for minimum effective dose relative to the parent compound: versus BU-3862T; for inhibitory activity against experimental animal tumor systems: e.g. B16 melanoma in mice; for antitumor efficacy against B16 melanoma, in words: ip; for T/C: Table 6, QD × 9
Procedure: (§2) In vivo antitumor activities of BU-3862T and the diacetyl and dihydro derivatives were determined in tumor-bearing BDF1 or CDF1 mice. Male BDF1 mice were intraperitoneally inoculated with 0.5 ml of 10% melanotic melanoma B16 brei and female CDF1 mice were also intraperitoneally inoculated with 0.4 ml of diluted ascitic fluid containing 10^5 lymphoid leukemia L1210 cells or 10^6 lymphocytic leukemia P388 cells.

[1] = system: Moser (human colorectal carcinoma) cells; experiment: in vitro cytotoxicity against Moser (neutral red staining, 72 hours); format: cell-based
Procedure: (§1) BU-3862T and diacetyl-, dihydro- and tetrahydro-BU-3862T were tested for in vitro cytotoxicity against several murine and human tumor cell lines and/or for in vivo antitumor activity in mice. […] B16-F10 (murine melanoma), P388 (murine leukemia), L1210 (murine leukemia) and Moser (human colorectal carcinoma) cells were grown to the logarithmic phase in enriched Eagle minimum essential medium (MEM) supplemented with fetal calf serum (FCS, 10%) and kanamycin (60 mcg/ml), and HCT-116 (human colon carcinoma) cells in Maccoy's 5A medium supplemented with FCS (10%), penicillin (100 u/ml) and streptomycin (100 mcg/ml), harvested and inoculated into wells of the 96- or 24-well tissue culture plate with test materials at the concentrations of 1.5×10^5, 1.2×10^4,1.2×10^4, 2.5×10^5 and 3.0×10^5 cells/ml, respectively. They were incubated at 37° C. in humidified atmosphere of 5% CO2 and 95% air for 72 hours. The cytotoxic activities against B16-F10, Moser and HCT-116 cells were colorimetrically determined at 540 nm after staining viable cells with 0.006% neutral red solution. On the other hand, the cytotoxic activities against P388 and L1210 cells were determined by counting the number of viable cells.

[2] = system: HCT-116 (human colon carcinoma) cells; experiment: in vitro cytotoxicity against HCT-116 (neutral red staining, 72 hours); format: cell-based
Procedure: as §1

[3] = system: murine and human tumor cell lines
Procedure: as §1

[4] = system: B16-F10 (murine melanoma) cells; experiment: in vitro cytotoxicity against B16-F10 (neutral red staining, 72 hours); format: cell-based; conditions: Mus musculus
Procedure: as §1

[5] = biological activity of BU-3862T derivatives
[6] = system: L1210 (murine leukemia) cells; experiment: in vitro cytotoxicity against L1210 (viable cell count, 72 hours); format: cell-based; conditions: Mus musculus; L1210, 72 hours
Procedure: as §1

P388 leukemia = conditions: at the doses tested
Procedure: as §2

[7] = system: RNA synthesis in B16-F10 melanoma cells; experiment: inhibition of RNA synthesis in cultured B16-F10 melanoma cells; format: cell-based, murine; conditions: Mus musculus, 14C-uridine incorporation, 4 hours + 60 min
[8] = system: DNA synthesis in B16-F10 melanoma cells; experiment: inhibition of DNA synthesis in cultured B16-F10 melanoma cells; format: cell-based, murine
[9] = system: P388 (murine leukemia) cells; experiment: in vitro cytotoxicity against P388 (viable cell count, 72 hours); format: cell-based; conditions: Mus musculus; P388, 72 hours
Procedure: as §1

solubility = format: physicochemical
[10] = system: protein synthesis in B16-F10 melanoma cells; experiment: inhibition of protein synthesis in cultured B16-F10 melanoma cells; format: cell-based, murine
[11] = Moser, 72 hours, read-out: IC50
[12] = HCT-116, 72 hours, read-out: IC50
[13] = B16-F10, 72 hours, read-out: IC50

Procedure for L1210 leukemia: as §2

## CC(C)CCCCC(=O)N[C@@H](CO)C(=O)NC(CC(C)C)C(=O)C1(CO)CO1 (some centres unmarked) [Dihydro-BU-3862T]
B16 melanoma; Q4D × 3, ip
  minimum effective dose relative to the parent compound: approximately ten times less active than the parent compound
B16 melanoma
  inhibitory activity against experimental animal tumor systems: exhibit inhibitory activity
  antitumor efficacy against B16 melanoma, in words: significant anti-B16 melanoma activity
[1]; [11]
  IC50: 0.038 µg/mL (≈ 0.0949 µM)
[2]; [12]
  IC50: 0.013 µg/mL (≈ 0.0325 µM)
[3]
  cytotoxic potency relative to BU-3862T: approximately half those of BU-3862T
[4]; [13]
  IC50: 0.0032 µg/mL (≈ 0.00799 µM)
[5]
  biological activity, in words: retained the biological activity

## C=C(C)CC(NC(=O)[C@H](CO)NC(=O)CCCCC(C)C)C(=O)C1(CO)CO1 (some centres unmarked) [BU-3862T]
B16 melanoma; Q4D × 3, ip
  potency (minimum effective dose) relative to mitomycin C: the same as that of mitomycin C
B16 melanoma; Q4D × 3 versus QD × 9
  chemotherapeutic index (ratio of optimal dose to minimum effective dose), intermittent versus consecutive dosing: broader therapeutic range
  maximum T/C value, intermittent versus consecutive dosing: better antitumor activity
B16 melanoma; 0.13 mg/kg/day ip
  T/C: 123%
B16 melanoma; 0.25 mg/kg/day ip
  T/C: 133%
B16 melanoma; 0.5 mg/kg/day ip
  T/C: 133%
B16 melanoma; 0.63 mg/kg/day (so in the source) ip
  T/C: 113%
B16 melanoma; 1.0 mg/kg/day ip
  T/C: 97%
B16 melanoma; 2.0 mg/kg/day ip
  T/C: Tox.
B16 melanoma
  inhibitory activity against experimental animal tumor systems: exhibit inhibitory activity
  antitumor efficacy against B16 melanoma, in words: excellent therapeutic efficacy against B16 melanoma
[1]; [11]
  IC50: 0.016 µg/mL (≈ 0.0402 µM)
[6]
  IC50: 0.01 µg/mL (≈ 0.0251 µM)
P388 leukemia
  prolongation of lifespan in P388 leukemia-bearing mice: no significant prolongation of lifespan
[7]
  IC50: 11 µg/mL
[2]; [12]
  IC50: 0.0097 µg/mL (≈ 0.0243 µM)
[4]; [13]
  IC50: 0.0017 µg/mL (≈ 0.00427 µM)
[8]; DNA versus RNA synthesis
  potency on DNA synthesis relative to that on RNA synthesis in terms of IC50 value: over 100 times
[8]; Mus musculus, B16-F10, 3H-thymidine incorporation, 3.5 hours + 30 min
  IC50: 0.1 µg/mL
[9]
  IC50: 0.031 µg/mL (≈ 0.0778 µM)
solubility; in benzene and other organic solvents
  solubility: practically insoluble
solubility; in dimethyl sulfoxide, dimethylformamide, methanol, ethanol, ethyl acetate and chloroform
  solubility: readily soluble
solubility; in water
  solubility: practically insoluble
[10]; Mus musculus, B16-F10, 3H-leucine incorporation, 4 hours + 60 min
  IC50: 0.06 µg/mL
[10]; protein versus RNA synthesis
  potency on protein synthesis relative to that on RNA synthesis in terms of IC50 value: over 100 times
L1210 leukemia; 0.25 mg/kg/day ip, Q3D × 3
  T/C: 119%
L1210 leukemia; 1.0 mg/kg/day ip, Q3D × 3
  T/C: 125%
L1210 leukemia; 2.0 mg/kg/day ip, Q3D × 3
  T/C: 144%
L1210 leukemia; 4.0 mg/kg/day ip, Q3D × 3
  T/C: Tox.
L1210 leukemia; L1210 leukemia, ip
  maximum T/C value: 145%
L1210 leukemia; ip
  antitumor activity against L1210 leukemia, in words: moderate antitumor activity

## CC(C)CCCCC(=O)N[C@@H](CO)C(=O)NC(CC(C)C)C(=O)C(CO)CO (some centres unmarked) [Tetrahydro-BU-3862T]
[1]; [11]
  IC50: > 1 µg/mL
[2]; [12]
  IC50: > 1 µg/mL
[3]
  cytotoxic activity compared with BU-3862T, diacetyl and dihydro derivatives: significantly less active than the above compounds
[4]; [13]
  IC50: 0.53 µg/mL (≈ 1.32 µM)
[5]
  biological activity, in words: devoid of the activity

## CO[C@@]12[C@H](COC(N)=O)C3=C(C(=O)C(C)=C(N)C3=O)N1C[C@@H]1N[C@@H]12 [Mitomycin C, reference compound]
[1]; 72 h
  IC50: 1.2 µg/mL (≈ 3.59 µM)
[2]; HCT-116, 72 h
  IC50: 0.8 µg/mL (≈ 2.39 µM)
[4]; B16-F10, 72 h
  IC50: 0.5 µg/mL (≈ 1.5 µM)
L1210 leukemia; 0.25 mg/kg/day ip, QD × 3
  T/C: 125%
L1210 leukemia; 0.5 mg/kg/day ip, QD × 3
  T/C: 131%
L1210 leukemia; 1.0 mg/kg/day ip, QD × 3
  T/C: 138%
L1210 leukemia; 2.0 mg/kg/day ip, QD × 3
  T/C: 163%

## C=C(C)CC(NC(=O)[C@H](COC(C)=O)NC(=O)CCCCC(C)C)C(=O)C1(COC(C)=O)CO1 (some centres unmarked) [Diacetyl-BU-3862T]
B16 melanoma; Q4D × 3, ip
  minimum effective dose relative to the parent compound: approximately ten times less active than the parent compound
B16 melanoma
  inhibitory activity against experimental animal tumor systems: exhibit inhibitory activity
  antitumor efficacy against B16 melanoma, in words: significant anti-B16 melanoma activity
[1]; [11]
  IC50: 0.044 µg/mL (≈ 0.0912 µM)
[2]; [12]
  IC50: 0.017 µg/mL (≈ 0.0352 µM)
[3]
  cytotoxic potency relative to BU-3862T: approximately half those of BU-3862T
[4]; [13]
  IC50: 0.003 µg/mL (≈ 0.00622 µM)
[5]
  biological activity, in words: retained the biological activity
